These results are taken from patent publication US20200131473A1, “METHOD OF GENERATING 2 CELL-LIKE STEM CELLS” (IFOM FONDAZIONE ISTITUTO FIRC DI ONCOLOGIA MOLECOLARE, priority 2017, published 2020).

“Also recorded” adds a separate entry of the source.

Assay [1] relates to morula stage mouse embryos. The assay is described as follows: qPCR for 2C-embryo specific genes in APH-treated morula-stage mouse embryos. The class given is cell-based. As for the experimental part:
(§1) RNA was extracted using RNeasy mini kit (QIAGEN), quantified by NanoDrop spectrophotometer and cDNA was prepared from 2 μg total DNA-depleted RNA using SuperScript™ III reverse transcriptase kit (Invitrogen cat #18080-093) following manufacturer's instructions. qPCR assay performed based on standard protocol using 10× SsoFast™ EvaGreen® Supermix or later 1× LightCycler 480 SYBR Green I Master (Roche, 04707516001), 0.5 μM primer mix and 5 ng of cDNA. GAPDH was used as internal control to normalise the qPCR data following ΔΔCt method, 10 μM primer mix and a total amount of cDNA corresponding to 5 ng of starting RNA for each reaction.
Cryopreserved C57BL/6N morulae purchased from Janvier Labs (QUICKBLASTO®), were thawed according to the manufacturer's protocol. After recovery, a group of healthy morulae were treated with APH at final concentration of 1.5 μM in KSOM culture medium for 4 hrs while the rest were kept as control. The day after, the same number of morphologically healthy and synchronized blastocysts (22 and 7 blastocysts in the 1st and 2nd round, respectively) were selected from both groups. […] As the quantity of isolated RNA is not detectable by NanoDrop spectrophotometer, the supernatant was directly used for cDNA preparation following centrifugation at 10621 g for 2 minutes. cDNA preparation and qPCR were performed following the aforementioned protocols. […]
(Quantitative PCR measures a nucleic acid by following its amplification.)

The test system of assay [2] is 2C-like genes (Zscan4, MuERV-L/MERVL, Dux) in ESCs (E14, R1). Put plainly: qPCR for 2C-like specific genes in ESCs. In kind it is cell-based, mouse. As for the experimental part: All treatments including APH, HU, UV, ATRi, ATMi and Chk1i were added in to fresh ESC medium and the cells were kept in 37° C. and 3% 02 tension for overnight (16-17 hrs) unless mentioned in each particular result section. APH was used at various concentrations ranging from 0.3 uM to 6 uM that is mentioned in each experiment in order to induce mild to acute replication stress response. Similarly, HU was used at 0.1 mM-3 mM. ATMi (KU-55933) and ATRi (VE 822) were used at the concentration of 10 uM and 1 uM respectively. Moreover, Chk1i (UCN-01) at the concentration of 100 nM was used. UV radiation was performed at the dosage ranging from 2 to 10 J/m2. For induction of ETAA1-AAD expression, Dox was used at the concentration of 1 μg/mL for 48 hrs.
as §1

The subject of assay [3] is Nanog, Pou5f1 (Oct4), Sox2. The assay is described as follows: Immunostaining and qPCR for canonical pluripotency markers in ESCs. In kind it is cell-based, mouse. The conditions noted are these: upon APH treatment. As for the experimental part: RNA was extracted using RNeasy mini kit (QIAGEN), quantified by NanoDrop spectrophotometer and cDNA was prepared from 2 μg total DNA-depleted RNA using SuperScript™ III reverse transcriptase kit (Invitrogen cat #18080-093) following manufacturer's instructions. qPCR assay performed based on standard protocol using […] SsoFast™ EvaGreen® Supermix or later 1× LightCycler 480 SYBR Green I Master (Roche, 04707516001), 0.5 μM primer mix and 5 ng of cDNA. GAPDH was used as internal control to normalise the qPCR data following ΔΔCt method, 10 μM primer mix and a total amount of cDNA corresponding to 5 ng of starting RNA for each reaction. […] Then, cells were incubated with primary antibody at 4° C. overnight, followed by washes and incubation with secondary antibody for an hour at room temperature. Next samples were mounted and images were acquired with wide field florescent microscope. Antibodies used in this study were Anti Oct-3/4 (Santa Cruz sc-5279), Anti Nanog (Abcam ab80892) and Plet-1 antibody (Nordic MUbio MUB1512P) and), Anti-GFP (Abcam, ab5450). Acquired figures were analyzed with ImageJ software.

The subject of assay [4] is mouse embryonic fibroblast (MEF) lines. The assay is described as follows: qPCR for 2C-specific markers in MEF lines. The class given is cell-based. The note with it: two MEF lines with distinct genetic backgrounds. As for the experimental part:
ESCs were grown in feeder free culture condition either with or without 0.1% gelatin coat and incubated in 37° C. and 3% 02 tension. ESC medium (high glucose DMEM (DMEM Media—GlutaMAX™-I, Gibco)), 15% ESC qualified FBS (HyClone™ Fetal Bovine Serum), 2 mM L-glutamine, 1/500 home-made leukemia inhibitory factor, 0.1 mM non-essential amino acids, 0.1 mM 2-bmercaptoethanol, 50 units/ml penicillin, […] streptomycin, 1 mM Sodium Pyruvate) supplemented with two inhibitors (2i from Axon medchem) that are PD 0325901; highly specific non-ATP-competitive inhibitor of MEK (aka MKK) 1/2 at final concentration of 1 uM and CHIR 99021; specific glycogen synthase kinase GSK-3 inhibitor at final concentration of 3 uM. MEF cells were cultured in MEF medium (high glucose DMEM (Lonza), 10% north America FBS, 2 mM L-glutamine, 0.1 mM non-essential amino acids, 50 units/ml penicillin, 1 mM Sodium Pyruvate and […] streptomycin).
RNA was extracted using RNeasy mini kit (QIAGEN), quantified by NanoDrop spectrophotometer and cDNA was prepared from 2 μg total DNA-depleted RNA using SuperScript™ III reverse transcriptase kit (Invitrogen cat #18080-093) following manufacturer's instructions. qPCR assay performed based on standard protocol using […] SsoFast™ EvaGreen® Supermix or later 1× LightCycler 480 SYBR Green I Master (Roche, 04707516001), 0.5 μM primer mix and 5 ng of cDNA. […]

On to `C[C@@]1(CO)[C@H](O)CC[C@@]2(C)[C@H]1CC[C@H]1C[C@@H]3C[C@@]12CC[C@]3(O)CO` [APH, aphidicolin], for which the “expression of 2C embryo specific markers Dux, MERVL and Gm4981 (qPCR)” value in assay [1] (morula-stage embryos treated with APH, blastocyst stage) is reported as “activated the expression of several key 2C embryo specific markers”. Further, the “expression of 2C-embryo-specific genes Zscan4, Tcstv3, GM12794 and Eif1a (qPCR)” value in assay [1] (morula-stage embryos, APH 1.5 μM for 4 hrs, blastocysts analysed the day after) is on record as “activate several key 2C-embryo-specific genes”. For the same molecule, in assay [2] (APH treatment), the “expression of key 2C-like genes in DUX KO ESCs” value is on record as “could not induce” and the “main 2C-like genes, qPCR validation of profiling” value is given as “significant upregulation”. Further, the “expression of 2C-like genes in ATR Seckel ESCs” value in assay [2] (APH treatment, unlike normal wild type ESC) is on record as “milder increase; also recorded: mild increase”. Moreover, in assay [2] (ESC lines E14 and R1, time and dosage-dependent), the “expression of Zscan4 and MuERV-L (QPCR and FACS)” value was “significantly upregulated”. Moreover, the “Nanog, Pou5f1 (Oct4) protein in Zscan4 positive cells (immunostaining)” value in assay [3] is on record as “mild downregulation”. Further, in assay [3] (Sox2, Nanog, Pou5f1, Rex1), the “expression of pluripotency related genes at the transcriptional level” value is “no significant alterations”. In assay [4], the “expression of main 2C-specific markers such as MuERV-L in MEF lines” value is reported as “do not alter”.
